Reference: patent US11446269B2, “Methods of reducing or preventing oxidation of small dense LDL or membrane polyunsaturated fatty acids” (Amarin Pharmaceuticals Ireland Limited, priority 2014, dated 2022)
Several values for one entry are separate records, joined by “and”; a condition that tells them apart may be missing. Identical values can stand only once.

Assays:
human sdLDL = experiment: Copper-induced sdLDL oxidation, TBARS (Example 7); type: biochemical
Procedure: (§1) An experiment to study the antioxidant effect of EPA in LDL and small dense […] performed. […] Fenofibrate, gemfibrozil, and niacin were purchased from Sigma-Aldrich. […] Vitamin E was also incubated with sample aliquots as a positive control.

unfractionated LDL = experiment: Copper-induced oxidation of unfractionated LDL, TBARS (Example 7); type: biochemical, human; conditions: 10 μM, 1 hr
Procedure: as §1

[1] = X-ray diffraction of cholesterol domains in POPC/cholesterol model membranes, C/P 1.5:1 (Example 9); conditions: drug-to-phospholipid mole ratio 1:30, C/P 1.5:1
Procedure: Multilamellar vesicles (MLVs) were prepared as binary mixtures that include palmitoyloleoylphosphatidylcholine (POPC) (1.0 mg total phospholipid per sample) and cholesterol at an elevated cholesterol-to-phospholipid (C/P) mole ratio of 1.5:1. […] Samples were shell-dried under nitrogen gas and placed under vacuum for 3 hours to remove residual solvent at room temperature. After desiccation, each sample was resuspended in saline buffer (0.5 mM HEPES, 154 mM NaCl, pH 7.3) to yield a final phospholipid concentration of 2.5 mg/mL. Lipid suspensions were then vortexed for 3 minutes at ambient temperature to form MLVs.
Briefly, a 100 μL aliquot of each MLV preparation (containing 250 μg MLV) was transferred to a Lucite® sedimentation cell fitted with an aluminum foil substrate designed to collect MLVs into a single membrane pellet upon centrifugation. Samples were then loaded into a Sorvall AH-629 swinging bucket rotor (DuPont Corp., Wilmington, Del.) and centrifuged at 35,000 g, 5° C., for 90 minutes.
After centrifugal orientation, sample supernatants were aspirated and aluminum foil substrates, each supporting a single membrane pellet, were removed from the sedimentation cells. Sample pellets were dried for 5-10 minutes at ambient conditions, mounted onto curved glass supports, and placed in hermetically-sealed, brass or glass containers (for immediate analysis or temporary storage, respectively). All x-ray diffraction experiments were conducted at 20° C., 74% relative humidity. The latter was established by exposing membrane samples to saturated solutions of […] (K2C4H4O6.½H2O) for at least 1 hour prior to experimental analysis.
Oriented membrane samples were aligned at grazing incidence with respect to a collimated, mono-chromatic CuKα x-ray beam (Kα1 and Kα2 unresolved; λ=1.54 Å) produced by a Rigaku Rotaflex RU-200, high-brilliance microfocus generator (Rigaku-MSC, The Woodlands, Tex.) as previously described (Mason et al., Biophys. J., vol. 55(4), pages 769-778 (1989)). The samples were initially subjected to x-ray diffraction analysis at least 12 hours after formation of the membrane pellets and retested for up to several days. Analytical x-rays were generated by electron bombardment of a rotating copper anode and are filtered through a thin nickel foil to provide monochromatic radiation (λ=1.54 Å). Collimation of the x-ray beam was achieved using a single Franks mirror. […]
The d-space for any given membrane multi bilayer is a measurement of the unit cell periodicity of the membrane lipid bilayer (e.g., the distance from the center of one lipid bilayer to the next including surface hydration), and is calculated from Bragg's Law, hλ=2d sin θ, where h is the diffraction order, λ is the wavelength of the x-ray radiation (1.54 Å), d is the membrane lipid bilayer unit cell periodicity, and θ is the Bragg angle equal to one-half the angle between the incident beam and scattered beam.
The presence of cholesterol domains in a given membrane sample results in the production of distinct Bragg (diffraction) peaks having singular periodicity values of 34 and 17 Å (typically referred to as first- and second-order cholesterol domain peaks). Under the specific temperature and relative humidity conditions established for these experiments, the second-order, 17 Å cholesterol domain peak was well-delineated from other, neighboring cholesterol and phospholipid diffraction peaks and was thus used to quantitate relative cholesterol domain peak intensity. […]

sdLDL = experiment: Glucose-induced sdLDL oxidation, MDA/TBARS (Example 10); type: biochemical, human; conditions: 10.0 μM, glucose 200 mg/dL
Procedure: Vitamin E (α-tocopherol) purchased from Sigma-Aldrich was prepared in ethanol at 1.0 mM (ε=3.06×10^4 M^−1 cm^−1 at 294 nm) prior to experimental use. Test compounds were further diluted in ethanol or aqueous buffer as needed. Phosphate Buffered Saline (PBS) purchased from Sigma-Aldrich was prepared in double distilled water at 10 mM (138 mM NaCl, 2.7 mM KCl, pH 7.4). […] Lipid oxidation was measured by the colorimetric detection of malondialdehyde (MDA), a marker of oxidative stress.

| SMILES | effect on sdLDL oxidation (human sdLDL; 10.0 μM, after 4 hours, vs vehicle or DHA) | inhibition of sdLDL oxidation (TBARS formation) (human sdLDL; each agent at 10 μM, 1 hr, vs vehicle, 10 µM) | inhibition of TBARS formation (unfractionated LDL; unfractionated LDL, vs vehicle) [%] | reduction in cholesterol domain peaks vs vehicle [1] [%] | MDA formation (sdLDL) [µM] | inhibition of sdLDL oxidation (sdLDL; vs vehicle controls) [%] | effect on sdLDL oxidation (human sdLDL; 10 μM, 1 hr, vs vehicle-treated controls) | effect on unfractionated LDL oxidation (unfractionated LDL; vs vehicle-treated controls) | effect on cholesterol domains [1] | effect on glucose-induced sdLDL oxidation (sdLDL) |
| --- | --- | --- | --- | --- | --- | --- | --- | --- | --- | --- |
| CC/C=C\C/C=C\C/C=C\C/C=C\C/C=C\CCCC(=O)O [EPA, cis-5,8,11,14,17-eicosapentaenoic acid] | significantly inhibited sdLDL oxidation | 93±2% and 92±8% | > 90 | 65 | 0.2 ± 0.1 | 94 |  |  |  |  |
| O=C(O)c1cccnc1 [Niacin, nicotinic acid] |  |  |  |  |  |  | no significant effect | no significant effect | no significant changes in cholesterol domain size | did not inhibit |
